From patent US6642265B1, “Thrombopoietin mimetics” (SmithKline Beecham Corporation, priority 2002, dated 2003) come the findings set out here.

Structures are written as SMILES.

As a reminder, the melting point is the temperature, or range, at which the solid turns liquid. Broadly, the EC50 is the concentration needed to bring the measured effect to its halfway point. A lower EC50 goes with an effect from little substance.

One data set addresses T1, TPO receptor (Homo sapiens, UniProt P40238).
T1 construct: expressed in transfected cells; host or cells: murine BaF3 cells
T1 sequence (P40238 26-635): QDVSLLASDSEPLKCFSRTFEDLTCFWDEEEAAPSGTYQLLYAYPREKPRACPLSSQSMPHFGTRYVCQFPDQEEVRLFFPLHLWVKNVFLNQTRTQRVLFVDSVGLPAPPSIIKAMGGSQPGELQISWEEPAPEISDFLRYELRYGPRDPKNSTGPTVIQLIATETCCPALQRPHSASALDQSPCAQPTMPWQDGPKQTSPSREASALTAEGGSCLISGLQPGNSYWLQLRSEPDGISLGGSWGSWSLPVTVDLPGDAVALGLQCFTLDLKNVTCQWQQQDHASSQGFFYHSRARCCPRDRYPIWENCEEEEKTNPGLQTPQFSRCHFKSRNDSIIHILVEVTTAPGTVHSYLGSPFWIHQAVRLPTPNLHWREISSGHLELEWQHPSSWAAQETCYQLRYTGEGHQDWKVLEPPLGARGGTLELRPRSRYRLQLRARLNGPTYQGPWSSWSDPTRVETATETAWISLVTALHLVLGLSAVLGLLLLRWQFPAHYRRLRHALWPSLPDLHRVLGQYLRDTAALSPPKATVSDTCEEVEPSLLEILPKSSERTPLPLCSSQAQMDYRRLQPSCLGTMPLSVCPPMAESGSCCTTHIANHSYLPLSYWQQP
The experiment in a line: Luciferase assay in TPO-responsive BaF3 cell line. Type of data set: cell-based. Conditions: TPO-responsive murine BaF3 cells. As to the method:
Compounds of the present invention were tested for potency as mimetics of the TPO receptor in a Luciferase assay such as described in Lamb, et al., Nucleic Acids Research 23: 3283-3289 (1995) and Seidel, et al., Proc. Natl. Acad. Sci. USA 92: 3041-3045 (1995) by substituting a TPO-responsive BaF3 cell line (Vigon et a). Proc. Natl. Acad. Sci. USA 1992, 89, 5640-5644) for the HepG2 cells utilized therein. The murine BaF3 cells express TPO receptors and closely match the pattern of STAT (signal transducers and activators of transcription) activation observed in primary murine and human bone marrow cells.

As to `Cc1nn(-c2ccc(OCc3ccccc3)cc2)c(O)c1N=Nc1ccc(C(=O)O)cc1O` [Example 3, 4-{[1-(4-Benzyloxyphenyl)-5-hydroxy-3-methyl-1H-pyrazol-4-yl]azo}-3-hydroxybenzoic Acid], the melting point is 258 to 260 °C (dec.).

`Cc1ccc(-n2nc(C)c(N=Nc3ccc(C(=O)O)cc3O)c2O)cc1C` [Example 6, 4-{[1-(3,4-Dimethylphenyl)-5-hydroxy-3-methyl-1H-pyrazol-4-yl]azo}-3-hydroxybenzoic Acid] yielded an EC50 on TPO receptor of 1.8 µM. For the same molecule, the “activity relative to TPO in the luciferase assay” value on TPO receptor (efficacy printed with the EC50) was determined as 50 % TPO.

Take `Cc1ccc(-n2nc(C)c(N=Nc3cc(Cl)cc(S(=O)(=O)O)c3O)c2O)cc1C` [Example 11, 5-Chloro-3-{[1-(3,4-dimethylphenyl)-5-hydroxy-3-methyl-1H-pyrazol-4-yl]azo}-2-hydroxybenzenesulfonic Acid]: the melting point was 240 °C (dec.).
